Assay results: patent US9547000B2, “Chromogenic absorbent material for animal litter and related chromogenic solution” (7905122 CANADA INC., priority 2012, dated 2017)
Values after ≈ are worked out from the molar mass of the structure shown.

Experiment: Solubility of TMB in different solvents
Type: physicochemical
From the text: The following Table 1 presents results regarding the solubility of TMB in different solvents.

Compound: Cc1cc(-c2cc(C)c(N)c(C)c2)cc(C)c1N [TMB, 3,3′,5,5′-tetramethylbenzidine]
- solubility (organic solvent or mixture, solvent Dimethylsulfonamide): 1.6 mM (≈ 385 µg/mL)
- solubility (organic solvent or mixture, solvent Ethyl acetate): 10 mM (≈ 2400 µg/mL)
- solubility (organic solvent or mixture, solvent Methanol): 5.2 mM (≈ 1250 µg/mL)
- solubility (water, solvent Water): 0.1 mM (≈ 24 µg/mL)
